Data on 8 molecules can be found in US11608483B2, “Inverted culture plate system for cellular co-culture” (University of Maryland, Baltimore, priority 2016, dated 2023).

Read-outs that look alike come from different tables or passages of the source.

Data set [1] has as its target T1, hCAR (Homo sapiens, UniProt Q14994).
T1 sequence (Q14994 1-348 isoform Q14994-2): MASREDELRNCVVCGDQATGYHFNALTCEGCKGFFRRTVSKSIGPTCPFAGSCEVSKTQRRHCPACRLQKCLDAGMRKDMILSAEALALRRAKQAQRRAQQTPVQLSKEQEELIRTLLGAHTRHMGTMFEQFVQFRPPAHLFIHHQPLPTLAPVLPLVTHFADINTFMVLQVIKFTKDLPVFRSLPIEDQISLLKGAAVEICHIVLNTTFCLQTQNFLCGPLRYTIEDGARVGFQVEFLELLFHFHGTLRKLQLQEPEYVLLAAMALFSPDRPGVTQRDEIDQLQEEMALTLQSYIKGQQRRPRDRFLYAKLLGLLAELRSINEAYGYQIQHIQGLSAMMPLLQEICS
To be noted: 8 μM KET, PK11195 1 and 10 μM, HPH co-culture, 24 h.

Data set [2] concerns the target T1, hCAR. The experiment in a line: CYP2B6 luciferase reporter assay in HepG2-CAR-2B6 stable cells without HPHs. In kind it is cell-based. Also noted: expressed in transfected cells. As to conditions: 24 h; for hCAR activity (CYP2B6 reporter luciferase activity): HepG2-CAR-2B6 cells without HPHs.
In data set [3] the test system is CYP2B6 and CYP3A4 expression. The experiment in a line: CYP2B6 and CYP3A4 mRNA (real-time RT-PCR) and protein (western blot) induction in human primary hepatocytes. The method, then:
(§1) The age and sex of each liver donor used are detailed in Table 1.
(§2) Total RNA was isolated from cells using TRIzol reagent (ThermoFisher, Rockford, Ill.) and reverse transcribed using a High Capacity cDNA archive kit (Applied
(§3) Biosystems, Foster, Calif.) according to the manufacturer's instructions. Real-time PCR assay was performed using SYBR Green PCR Mastermix (Qiagen, Germantown, Md.) on an ABI StepOnePlus real-timePCR system (Applied Biosystems). […] Expression values were quantified using the following equation: fold over control=2^ΔΔCt method, where ΔCt represents the differences in cycle threshold numbers between the target gene and glyceraldehyde-3-phosphate dehydrogenase, and ΔΔCt represents the relative change in these differences between control and treatment groups.
(§4) Subsequently, membranes were incubated with primary antibodies against CYP2B6 (1:200; Santa Cruz Biotechnology, Santa Cruz, Calif.), CYP3A4 (1:5000; Sigma-Aldrich), or β-actin (1:50,000, Sigma-Aldrich) at 4° C. overnight. Blots were developed with West Pico chemiluminescent substrates (ThermoFisher) after incubation with horse-radish peroxidase secondary antibodies.

Another data set concerns the target T2, hCAR1+A (Homo sapiens, UniProt Q14994, INS274A).
T2 construct: expressed in transfected cells; host or cells: HepG2
T2 sequence (Q14994 with tags, fused parts or gaps isoform Q14994-2 INS270A): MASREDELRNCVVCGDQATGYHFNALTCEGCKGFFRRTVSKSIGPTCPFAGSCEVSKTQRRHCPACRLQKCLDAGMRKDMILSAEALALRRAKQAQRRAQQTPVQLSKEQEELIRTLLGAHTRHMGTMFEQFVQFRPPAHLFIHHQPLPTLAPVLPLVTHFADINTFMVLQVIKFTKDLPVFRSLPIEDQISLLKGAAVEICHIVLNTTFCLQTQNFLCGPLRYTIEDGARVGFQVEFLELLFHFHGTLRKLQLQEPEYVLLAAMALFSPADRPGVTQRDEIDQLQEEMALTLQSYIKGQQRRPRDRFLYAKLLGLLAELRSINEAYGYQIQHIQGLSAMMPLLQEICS
T2 sequence (P19793 1-462 partner): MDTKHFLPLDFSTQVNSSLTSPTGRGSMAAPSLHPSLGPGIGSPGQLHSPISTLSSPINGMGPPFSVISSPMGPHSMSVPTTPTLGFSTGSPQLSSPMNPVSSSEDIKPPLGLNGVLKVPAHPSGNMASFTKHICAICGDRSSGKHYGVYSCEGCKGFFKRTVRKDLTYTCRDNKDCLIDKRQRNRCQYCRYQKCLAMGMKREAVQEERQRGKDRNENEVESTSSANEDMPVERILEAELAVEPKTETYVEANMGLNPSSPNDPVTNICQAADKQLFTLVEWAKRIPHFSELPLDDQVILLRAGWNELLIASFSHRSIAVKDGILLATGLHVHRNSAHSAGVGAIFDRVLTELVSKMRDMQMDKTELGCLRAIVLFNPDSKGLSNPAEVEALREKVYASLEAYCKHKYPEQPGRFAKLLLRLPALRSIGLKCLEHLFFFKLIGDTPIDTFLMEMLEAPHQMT
The experiment in a line: CAR1+A/CYP2B6-2.2k reporter assay in transfected HepG2 cells. Format: cell-based. As to conditions: HepG2 cells without HPHs, 24 h. Background: A reporter such as luciferase makes a cellular process visible.

In data set [4] the test system is human primary hepatocytes (HPHs). The experiment in a line: LC-MS/MS measurement of PK11195 metabolism in HPHs. In kind it is in vitro ADME. To be noted: for LC-MS/MS peak of metabolite in HPH culture medium: after 1 hour incubation of 10 μM PK11195 with HPHs, versus 0 hour. Here is the method: Media (450 μl ) were collected from each well at 0 and 1 hours and frozen immediately at −80° C. Samples were thawed on ice before adding 50 μl of medium to 450 μl of ice-cold methanol/H2O (8:1, v/v). After centrifugation at 16,000g for 30 minutes, 200 μl of supernatant was transferred to a separate tube and dried down before resuspension in 200 μl H2O/ACN (1:1, v/v) with 0.1% formic acid. Authentic standards were prepared to 1 μM in H2O/ACN (1:1, v/v) with 0.1% formic acid. LC-MS/MS analysis was performed on a TSQ Quantum Ultra Triple Stage Quadrupole Mass Spectrometer coupled to an Ultimate 3000 RS Liquid Chromatogram System (Thermo Scientific, Waltham, Mass.). The LC separation was performed on a Waters (Milford, Mass.) BEH C18 column (2.1×50 mm, 1.7 μm) operated at 30° C. Solvents A and B consisted of 0.1% formic acid in H2O and 0.1% formic acid in ACN, respectively. The gradient program was 0.0-0.5 minutes, 50% B; 0.5-2.0 minutes, gradient to 95% B; 2.0-3.5 minutes, 95% B; 3.5-4.0 minutes, gradient to 50% B; and 4.0-5.0 minutes, 50% B. The flow rate was 0.5 ml/min and injection volume was 5 μl. Tandem mass spectrometry was performed in the positive-ion mode and the electrospray ionization source parameters were as follows: spray voltage, 3000; capillary temperature, 325; sheath gas pressure, 40; auxiliary gas pressure, 15; capillary offset, 35; and tube lens offset, 80. […] Data collection and analysis were performed using Xcalibur V 2.1 (Thermo Scientific).

The target in data set [5] is T1, hCAR. Nature of the data set: Nuclear translocation of EYFP-hCAR in HPHs. Format: cell-based. Details: expressed in transfected cells. As to conditions: HPHs donor 123; 1 mM PB, 10 μM others; 8 hours. Here is the method:
After treatment, cells were fixed with 4% paraformaldehyde, stained with 1 μg/ml 4′,6-diamidino-2-phenylindole (Sigma-Aldrich) for 30 minutes, and EYFP-hCAR localization in hepatocytes was visualized on a Nikon Eclipse TI fluorescent microscope (Nikon, Melville, N.Y.). Quantitative distribution of EYFP-hCAR was analyzed using General Analysis in the Nikon Elements AR High Content Analysis software package (version 4.50.00). Nuclear localization was defined and quantified as the percentage of total enhanced yellow fluorescent protein that overlaps with 4′,6-diamidino-2-phenylindole.

Data set [6] relates to CYP2B6 and CYP3A4 expression. Nature of the data set: CYP2B6 and CYP3A4 induction in wild-type HepaRG cells. To be noted: differentiated wild-type HepaRG cells; 10 μM PK11195; 24 h mRNA, 72 h protein. In kind it is cell-based. The method, then: as §1, §2, §3, §4
The test system of data set [7] is CYP2B6 and CYP3A4 expression. Nature of the data set: CYP2B6 and CYP3A4 induction in PXR-KO HepaRG cells. As to conditions: differentiated PXR-KO HepaRG cells; 10 μM; 24 h mRNA, 72 h protein. Here is the method: as §1, §2, §3, §4
The target of another data set is T3, hCAR/SRC-1 interaction (Homo sapiens, UniProt Q14994).
T3 construct: expressed in transfected cells; host or cells: COS1
T3 sequence (Q14994 1-348 isoform Q14994-2): T1 sequence (Q14994 1-348 isoform Q14994-2)
The experiment in a line: Mammalian two-hybrid assay in COS1 cells, CAR/SRC-1. Format: cell-based. To be noted: 24 h. Here is the method: (§5) COS1 cells seeded in 24-well plates were transfected with 110 ng of the reporter gene plasmid pG5luc, 80 ng of expression plasmids encoding the respective VP16AD/hCAR fusions, 40 ng of expression plasmids encoding GAL4-DBD/coregulatory fusions, and 20 ng of reference plasmid pRL-TK, each well using X-tremeGENE 9 DNA Transfection Reagent (Sigma-Aldrich). […] Luciferase activities were measured in cell lysates using the Dual Luciferase Kit (Promega). Data represent the mean±S.D. of three individual transfections.

The target in another data set is T4, hCAR/GRIP1 interaction (Homo sapiens, UniProt Q14994).
T4 construct: expressed in transfected cells; host or cells: COS1
T4 sequence (Q14994 1-348 isoform Q14994-2): T1 sequence (Q14994 1-348 isoform Q14994-2)
Nature of the data set: Mammalian two-hybrid assay in COS1 cells, CAR/GRIP1. In kind it is cell-based. To be noted: 24 h. Here is the method:
as §5

Data set [8] deals with HEK-293 cells. As to conditions: HPH/HEK-293 co-culture versus HEK-293 alone, 24 hrs.
Data set [9] concerns HEK-293 cells. To be noted: HEK-293 cultured alone, concentration up to 1 mM, 24 hrs.
For data set [10] the following is noted: Mordente A et al., 2009; cited from earlier work.

Consider `CC(=O)N1CCN(c2ccc(OCC3COC(Cn4ccnc4)(c4ccc(Cl)cc4Cl)O3)cc2)CC1` (stereo not shown) [KET, ketoconazole], for which the “effect of KET co-treatment on conversion of PK11195 from CAR antagonist to CAR activator” value at hCAR [1] is “significantly inhibited the conversion of PK11195”. The “effect of KET co-treatment on repression of CAR activity by PK11195” value on hCAR [2] (8 μM KET, HepG2-CAR-2B6 cells alone) is reported as “not influenced”.

`Clc1ccc(-c2nc3sccn3c2C=NOCc2ccc(Cl)c(Cl)c2)cc1` [CITCO, 6-(4-Chlorophenyl)imidazo[2,1-b][1,3]thiazole-5-carbaldehyde-O-(3,4-dichlorobenzyl)oxime]: the “induction of CYP2B6 and CYP3A4 at mRNA and protein levels” value (from here on “induction … at mRNA and protein levels”) in data set [3] (HPHs from liver donors 107 and 122, 1 mM PB, 1 μM CITCO, 10 μM RIF, 10 μM PK11195, 24 h mRNA, 72 h protein) is listed as “robustly induced”.

As for `O=C(O)c1cc2ccccc2c(-c2ccccc2Cl)n1` [COOH-PK, 1-(2-Chlorophenyl)isoquinoline-3-carboxylic acid], the “induction … at mRNA and protein levels” value in data set [3] (HPHs from liver donors 120 and 121, 0.1, 1 and 10 μM, 24 h mRNA, 72 h protein) is “negligible effects”. Also, the “hCAR activation in the CAR1+A/CYP2B6-2.2k reporter assay” value on hCAR1+A is recorded as “negligible CAR activation”. Besides, the “LC-MS/MS peak of metabolite in HPH culture medium” value in data set [4] is on record as “significantly increased in intensity”. For the same molecule, the “hCAR activity (CYP2B6 reporter luciferase activity)” value on hCAR [2] was “no effect on CAR activity”. For the same molecule, the “nuclear translocation of hCAR (EYFP-hCAR)” value at hCAR [5] is on record as “negligible CAR nuclear accumulation”.

Consider `CCC(C)N(C)C(=O)c1cc2ccccc2c(-c2ccccc2Cl)n1` (stereo not shown) [PK11195, 1-(2-chlorophenyl)-N-methyl-N-(1-methylpropyl)-3-isoquinolinecarboxamide], for which the “induction … at mRNA and protein levels” value in [3] is “robustly induced”. The “induction of CYP2B6 and CYP3A4 mRNA and protein” value in data set [6] is “induced the expression of CYP2B6 and CYP3A4 mRNA and protein”; in [7] it was “significantly induced”. Further, the “metabolism of PK11195 by HPHs” value in data set [4] (10 μM PK11195, media at 0 and 1 hour) is “metabolized by HPHs to COOH-PK and ND-PK”.

On to `CC[C@@H](C)NC(=O)c1cc2ccccc2c(-c2ccccc2Cl)n1` [ND-PK, (R)-N-Desmethyl PK11195], for which, in [7], the “induction of CYP2B6 and CYP3A4 mRNA and protein” value was “significantly induced”. Besides, the “hCAR activation in the CAR1+A/CYP2B6-2.2k reporter assay” value on hCAR1+A is reported as “robustly activates hCAR to a level similar to the positive control”. In addition, at hCAR/SRC-1 interaction (10 μM, COS1 cells), the “interaction between hCAR and SRC-1” value is reported as “moderately enhanced”. At hCAR/SRC-1 interaction (ND-PK + PK11195 co-treatment), the “effect on PK11195 mediated repression of SRC-1/CAR interaction” value was “markedly rescued”. The “interaction between hCAR and GRIP1” value on hCAR/GRIP1 interaction (10 μM, COS1 cells) is given as “moderately enhanced”. On hCAR/GRIP1 interaction (ND-PK + PK11195 co-treatment), the “effect on PK11195-repressed binding of GRIP1 to hCAR” value was “only minimally affecting”. Besides, the “LC-MS/MS peak of metabolite in HPH culture medium” value in data set [4] was “significantly increased in intensity”. The “hCAR activity (CYP2B6 reporter luciferase activity)” value on hCAR [2] was “activated hCAR in a concentration-dependent manner”. The “nuclear translocation of hCAR (EYFP-hCAR)” value on hCAR [5] was “robustly increased nuclear translocation”.

For `CCC1(c2ccccc2)C(=O)NC(=O)NC1=O` [PB, Phenobarbital], in data set [3] (hepatocytes), the “induction … at mRNA and protein levels” value is “robustly induced”.

With `O=P1(N(CCCl)CCCl)NCCCO1` (stereo not shown) [CPA, cyclophosphamide], the metabolism-dependent cytotoxicity entry in the data set with HEK-293 cells [8] is on record as “showed metabolism-dependence in the co-culture only”. Further, the cytotoxicity entry in the data set with HEK-293 cells [9] was “no cytotoxicity”.

On to `COc1cccc2c1C(=O)c1c(O)c3c(c(O)c1C2=O)C[C@@](O)(C(=O)CO)C[C@@H]3O[C@H]1C[C@H](N)[C@H](O)[C@H](C)O1` [DOX, doxorubicin], for which the “fraction eliminated from the body unchanged” value in data set [10] was “over 50%”.
